Measured values published in patent US20140213538A1, “LYSOPHOSPHATIDIC ACID RECEPTOR ANTAGONISTS” (InterMune, Inc., priority 2013, published 2014).

Key:
LPA1 = LPA1 (Homo sapiens, UniProt Q92633); experiment: LPA1 Migration Assay (Oris); type: cell-based; parameters: host or cells: primary fibroblasts (lung, dermal), HFL-1, 3T3 and CHO cells expressing LPA1R; conditions: read-out: Cell Migration EC50
Source text: LPA1 Migration Assay Migration of primary fibroblasts (including lung, dermal), HFL-1, 3T3 and CHO cells expressing LPA1R were monitored using the Oris™ assay (Platypus Technologies, Madison, Wis.). These cells were dye (Cell Tracker Green™) loaded and serum starved for 12-24 hrs. In response to chemoattractants such as LPA and serum, the cells migrated inward in to the exclusion (detection) zone. After fixing, fluorescent cells in the detection zone were counted using a high content reader. The ability of LPA1 antagonists to inhibit cell migration is quantified by plotting cell number vs. compound concentration and curve fitting the resulting dose-response curve to a 4 parameter logistic function.

LPA/S1P GPCR of interest = molecular target: T1, LPA/S1P GPCR of interest (Homo sapiens, UniProt Q92633); experiment: Beta-Arrestin based assay (PathHunter); type: cell-based
T1 construct: host or cells: CHO
Method in brief: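 EA Parental CHO cells (DiscoverX) were transfected with FuGENE (Roche) using CMV promoter-driven DNA constructs encoding the LPA/S1P GPCR of interest fused to a ProLink tag. Beta-arrestin recruitment in agonist mode was assessed 24-48 hrs later with PathHunter kits. Tests ran in quadruplicate in white 384 well plates, and end point luminescence was fit to a 4 parameter logistic function.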

T1 sequence (Q92633 whole entry): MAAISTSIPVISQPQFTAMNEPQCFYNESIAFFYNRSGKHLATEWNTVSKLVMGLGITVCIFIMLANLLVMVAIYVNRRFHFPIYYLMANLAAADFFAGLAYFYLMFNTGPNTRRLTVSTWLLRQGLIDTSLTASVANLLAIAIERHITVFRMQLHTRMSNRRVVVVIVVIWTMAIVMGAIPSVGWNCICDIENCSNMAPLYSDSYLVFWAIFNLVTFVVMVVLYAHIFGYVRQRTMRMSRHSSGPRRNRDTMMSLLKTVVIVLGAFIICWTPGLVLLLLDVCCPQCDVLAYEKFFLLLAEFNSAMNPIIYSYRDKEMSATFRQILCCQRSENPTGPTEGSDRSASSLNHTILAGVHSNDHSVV
Chain of LPA1 (Q92633 whole entry): as above

Row | EC50 (LPA1) | EC50 (LPA/S1P GPCR of interest) | SMILES
1 | > 500 nM | 50 to 500 nM | Cc1noc(-c2ccc(-c3ccc(NS(C)(=O)=O)cc3)cc2)c1NC(=O)O[C@H](C)c1ccccc1 [IT195]
2 | 50 to 500 nM | < 50 nM | C[C@@H](OC(=O)Nc1c(-c2ccc(-c3ccc(Oc4cc(F)ccc4C(=O)O)cc3)cc2)cnn1C)c1ccccc1 [IT469]
3 | 50 to 500 nM | 50 to 500 nM | C[C@@H](OC(=O)Nc1c(-c2cc3sc(-c4cc(F)c(CC(=O)O)c(F)c4)cc3s2)nnn1C)c1ccccc1 [IT158]
4 | > 500 nM | 50 to 500 nM | C[C@@H](OC(=O)Nc1c(-c2cc3sc(-c4ccc(CC(=O)O)cc4)cc3s2)cnn1C)c1ccccc1 [IT132]
5 | > 500 nM | > 500 nM | Cc1nsc(-c2cc3sc(-c4cnc(C5(C(=O)O)CC5)s4)cc3s2)c1NC(=O)O[C@H](C)c1ccccc1 [IT184]
6 | 50 to 500 nM | 50 to 500 nM | Cc1noc(C#Cc2ccc(NC3(C(=O)O)CC3)cc2)c1NC(=O)O[C@H](C)c1ccccc1 [IT006]
7 | 50 to 500 nM |  | Cc1noc(C#Cc2cc3sc(C4(C(=O)O)CC4)cc3s2)c1NC(=O)OCc1ccccc1 [IT048]
8 | 50 to 500 nM | < 50 nM | Cc1c(C#Cc2cnn(C)c2NC(=O)O[C@H](C)c2ccccc2)sc2c(C)c(C3(C(=O)O)CC3)sc12 [IT110]
9 | 50 to 500 nM | 50 to 500 nM | C[C@@H](OC(=O)Nc1c(-c2cc3sc(-c4cc(Cl)c(C5(C(=O)O)CC5)cc4F)cc3s2)cnn1C)c1ccccc1 [IT284]
10 | 50 to 500 nM | < 50 nM | Cc1nsc(-c2ccc(-c3cc(F)c(Oc4cccnc4C(=O)O)c(F)c3)cc2)c1NC(=O)O[C@H](C)c1ccccc1 [IT464]
11 | 50 to 500 nM | < 50 nM | Cc1noc(-c2ccc(-c3ccc(Oc4ccccc4C(=O)O)cn3)cc2)c1NC(=O)O[C@H](C)c1ccccc1 [IT344]
12 | 50 to 500 nM | < 50 nM | C[C@@H](OC(=O)Nc1c(-c2cc3sc(-c4ccc(C5(C(=O)O)CC5)c(F)c4F)cc3s2)cnn1C)c1ccccc1 [IT364]
13 | > 500 nM | 50 to 500 nM | C[C@@H](OC(=O)Nc1c(-c2cc3sc(-c4ccc5[nH]cc(CC(=O)O)c5c4)cc3s2)cnn1C)c1ccccc1 [IT188]
14 | > 500 nM | > 500 nM | Cc1noc(-c2cc3cc4sc(CC(=O)O)cc4cc3s2)c1NC(=O)O[C@H](C)c1ccccc1 [IT499]
15 | > 500 nM | > 500 nM | Cc1nsc(-c2cc3sc(-c4ccc(CC(=O)O)cc4N)cc3s2)c1NC(=O)O[C@H](C)c1ccccc1 [IT182]
16 | 50 to 500 nM | < 50 nM | Cc1onc(-c2cc3sc(C#CC4(C(=O)O)CC4)cc3s2)c1NC(=O)O[C@H](C)c1ccccc1 [IT418]
17 | > 500 nM | 50 to 500 nM | C[C@@H](OC(=O)Nc1c(-c2cc3sc(-c4ccc(CC(=O)O)s4)cc3s2)cnn1C)c1ccccc1 [IT147]
18 | 50 to 500 nM | 50 to 500 nM | Cc1noc(-c2cc3sc(-c4cc(F)c(OC5(C(=O)O)CC5)c(F)c4)cc3s2)c1NC(=O)O[C@H](C)c1ccccc1 [IT488]
19 | 50 to 500 nM | < 50 nM | C[C@@H](OC(=O)Nc1c(-c2cc3sc(-c4ccc(C5(C(=O)O)CC5)nc4)cc3s2)nnn1C)c1ccccc1 [IT270]
20 | > 500 nM |  | C[C@@H](OC(=O)N(C)c1c(C#Cc2cc3sc(C4(C(=O)O)CC4)cc3s2)cnn1C)c1ccccc1 [IT097]
21 | > 500 nM | > 500 nM | Cc1nsc(-c2ccc(-c3nnc(CC(=O)O)o3)cc2)c1NC(=O)O[C@H](C)c1ccccc1 [IT142]

Row | EC50 (LPA1) | EC50 (LPA/S1P GPCR of interest) | SMILES
22 | > 500 nM | > 500 nM | CCOc1cc(CC(=O)O)ccc1-c1cc2sc(-c3cnn(C)c3NC(=O)O[C@H](C)c3ccccc3)cc2s1 [IT190]
23 | 50 to 500 nM | < 50 nM | C[C@@H](OC(=O)Nc1c(-c2ccc(-c3ccc(C(C(=O)O)C4CCC4)cc3)cc2)cnn1C)c1ccccc1 (some centres unmarked) [IT151]
24 | > 500 nM |  | CCOC(=O)C1(c2cc3sc(C#Cc4cnn(C)c4NC(=O)O[C@H](C)c4ccccc4)cc3s2)CC1 [IT085]
25 | > 500 nM | > 500 nM | Cc1nsc(-c2cc3sc(-c4ccc(CC(=O)O)nc4)cc3s2)c1NC(=O)O[C@H](C)c1ccccc1 [IT185]
26 | > 500 nM |  | C[C@@H](OC(=O)Nc1c(CCc2cc3sc(C4(C(=O)O)CC4)cc3s2)cnn1C)c1ccccc1 [IT099]
27 | > 500 nM |  | C[C@@H](OC(=O)Nc1c(C2CCC(c3ccc(C4(C(=O)O)CC4)cc3)CC2)cnn1C)c1ccccc1 (some centres unmarked) [IT066]
28 | 50 to 500 nM | < 50 nM | Cc1noc(-c2ccc(-c3ccc(Oc4cc(F)ccc4C(=O)O)cc3)cc2)c1NC(=O)O[C@H](C)c1ccccc1 [IT467]
29 | > 500 nM | 50 to 500 nM | Cc1nsc(-c2cc3sc(-c4ccc(CC(=O)O)cc4F)cc3s2)c1NC(=O)O[C@H](C)c1ccccc1 [IT135]
30 | 50 to 500 nM |  | C[C@@H](OC(=O)Nc1c(C#Cc2ccc3cc(C4(C(=O)O)CC4)ccc3c2)cnn1C1CC1)c1ccccc1 [IT015]
31 | 50 to 500 nM | < 50 nM | C[C@@H](OC(=O)Nc1c(-c2cc3sc(-c4ccc5scc(CC(=O)O)c5c4)cc3s2)nnn1C)c1ccccc1 [IT336]
32 | 50 to 500 nM |  | C[C@@H](OC(=O)Nc1c(C#Cc2ccc3cc(C4(C(=O)O)CC4)ccc3c2)cnn1C)c1ccccc1 [IT014]
33 | > 500 nM |  | Cc1noc(-c2ccc(-c3ccc4c(c3)NC(=O)CC4C(=O)O)cc2)c1NC(=O)O[C@H](C)c1ccccc1 (some centres unmarked) [IT011]
34 | 50 to 500 nM |  | CCn1ncc(C#Cc2ccc3cc(C4(C(=O)O)CC4)ccc3c2)c1NC(=O)O[C@H](C)c1ccccc1 [IT016]
35 | > 500 nM |  | Cc1noc(-c2ccc(-c3ccc4c(c3)CCCC4C(=O)O)cc2)c1NC(=O)O[C@H](C)c1ccccc1 (mixture of isomers) [IT039]
36 | 50 to 500 nM |  | C[C@@H](OC(=O)Nc1c(-c2cc(F)c(-c3ccc(C4(C(=O)O)CC4)cc3)cc2F)oc2ccccc12)c1ccccc1 [IT075]
37 | 50 to 500 nM |  | C[C@@H](OC(=O)Nc1c(-c2ccc(-c3cc4sc(C5(C(=O)O)CC5)cc4s3)cc2)cnn1C)c1ccccc1 [IT056]
38 | 50 to 500 nM |  | Cc1nsc(-c2cc(F)c(-c3ccc(C4(C(=O)O)CCOCC4)cc3)cc2F)c1NC(=O)O[C@H](C)c1ccccc1 [IT042]
39 | 50 to 500 nM |  | C[C@@H](OC(=O)Nc1c(-c2cc(F)c(-c3ccc(C4(C(=O)O)CCOCC4)cc3)cc2F)cnn1C)c1ccccc1 [IT044]
40 | 50 to 500 nM |  | C[C@@H](OC(=O)Nc1c(-c2cc(F)c(-c3ccc(C4(C(=O)O)CC4)cc3)cc2F)nn2ncccc12)c1ccccc1 [IT061]
41 | 50 to 500 nM |  | C[C@@H](OC(=O)Nc1c(-c2cc(F)c(-c3ccc(C4(C(=O)O)CC4)cc3)cc2F)nn2ccccc12)c1ccccc1 [IT049]
42 | > 500 nM |  | Cc1noc(C#Cc2ccc3cc(CC4(C(=O)O)CC4)ccc3c2)c1NC(=O)O[C@H](C)c1ccccc1 [IT065]

Row | EC50 (LPA1) | EC50 (LPA/S1P GPCR of interest) | SMILES
43 | 50 to 500 nM |  | COc1ccccc1OC(=O)C1(c2cc3sc(C#Cc4cnn(C)c4NC(=O)O[C@H](C)c4ccccc4)cc3s2)CC1 [IT088]
44 | 50 to 500 nM |  | Cc1nsc(C#Cc2cc3sc(C4(C(=O)O)CC4)cc3s2)c1NC(=O)O[C@H](C)c1ccccc1 [IT034]
45 | 50 to 500 nM |  | C[C@@H](OC(=O)Nc1c(-c2cc(F)c(-c3cc4sc(C5(C(=O)O)CC5)cc4s3)cc2F)nnn1C)c1ccccc1 [IT071]
46 | 50 to 500 nM |  | C[C@@H](OC(=O)Nc1c(-c2ccc(-c3cc4sc(C5(C(=O)O)CC5)cc4s3)cc2)nnn1C)c1ccccc1 [IT050]
47 | 50 to 500 nM |  | C[C@@H](OC(=O)Nc1c(-c2ccc(-c3ccc(C4(C(=O)O)CC4)cc3)cc2)nc2cnccn12)c1ccccc1 [IT032]
48 | 50 to 500 nM |  | COCCOC(=O)C1(c2cc3sc(C#Cc4cnn(C)c4NC(=O)O[C@H](C)c4ccccc4)cc3s2)CC1 [IT084]
49 | 50 to 500 nM |  | C[C@@H](OC(=O)Nc1c(C#Cc2cc3sc(C4(C(=O)OCC(=O)N(C)C)CC4)cc3s2)cnn1C)c1ccccc1 [IT090]
50 | 50 to 500 nM |  | Cc1noc(C#Cc2ccc3cc(C4(CC(=O)O)CC4)ccc3c2)c1NC(=O)O[C@H](C)c1ccccc1 [IT003]
51 | > 500 nM |  | CC(C)OC(=O)C1(c2cc3sc(C#Cc4cnn(C)c4NC(=O)O[C@H](C)c4ccccc4)cc3s2)CC1 [IT086]
52 | 50 to 500 nM |  | C[C@@H](OC(=O)Nc1c(C#Cc2ccc3cc(C4(C(=O)O)CC4)ccc3c2)sc2ncccc12)c1ccccc1 [IT035]
53 | > 500 nM |  | Cc1nnn(-c2cc(F)c(-c3cc4sc(C5(C(=O)O)CC5)cc4s3)cc2F)c1NC(=O)O[C@H](C)c1ccccc1 [IT067]
54 | 50 to 500 nM |  | C[C@@H](OC(=O)Nc1c(C#Cc2cc3sc(C4(C(=O)O)CC4)cc3s2)nnn1C)c1ccccc1 [IT069]
55 | > 500 nM |  | C[C@@H](OC(=O)Nc1c(C#Cc2cc3sc(C4(C(=O)O)CC4)cc3s2)oc2ccccc12)c1ccccc1 [IT074]
56 | 50 to 500 nM |  | C[C@@H](OC(=O)Nc1c(C#Cc2ccc3cc(C4(C(=O)O)CC4)ccc3c2)nnn1C)c1ccccc1 [IT064]
57 | 50 to 500 nM |  | C[C@@H](OC(=O)Nc1c(-c2ccc(-c3ccc(C4(C(=O)O)CC4)cc3)cc2)nc2ncccn12)c1ccccc1 [IT043]
58 | 50 to 500 nM |  | Cc1nsc(-c2ccc(-c3cc4sc(C5(C(=O)O)CC5)cc4s3)cc2)c1NC(=O)O[C@H](C)c1ccccc1 [IT046]
59 | > 500 nM |  | C[C@@H](OC(=O)Nc1c(-c2ccc(-c3ccc(C4(C(=O)O)CC4)cc3)cc2)nn2cccnc12)c1ccccc1 [IT052]
60 | 50 to 500 nM |  | C[C@@H](OC(=O)Nc1c(-c2ccc(-c3ccc(C4(C(=O)O)CC4)cc3)cc2)sc2ncccc12)c1ccccc1 [IT031]
61 | 50 to 500 nM |  | C[C@@H](OC(=O)Nc1c(-c2ccc3cc(C#CC4(C(=O)O)CC4)ccc3c2)nnn1C)c1ccccc1 [IT146]
